Values quoted from earlier work as cited in patent US7718385B2, “Bioactivation of alkylating agents for cancer treatment” (priority 2003, dated 2010).

Legend:
HOP-92 = conditions: HOP-92, Non-Small Cell Lung, cited from earlier work
NCI-H322M = conditions: cited from earlier work
MDA-MB 231/ATCC = conditions: cited from earlier work
SNB-75 = conditions: SNB-75, Central Nervous System, cited from earlier work
SF-268 = conditions: SF-268, Central Nervous System, cited from earlier work
OVCAR-3 = conditions: OVCAR-3, Ovarian, cited from earlier work
SK-MEL-5 = conditions: SK-MEL-5, Melanoma, cited from earlier work
NCI-H226 = conditions: NCI-H226, Non-Small Cell Lung, cited from earlier work
786-0 = conditions: 786-0, Renal, cited from earlier work
HT29 = conditions: HT29, Colon, cited from earlier work
K-562 = conditions: K-562, Leukemia, cited from earlier work
HOP-62 = conditions: HOP-62, Non-Small Cell Lung, cited from earlier work
HS 578T = conditions: cited from earlier work
SK-MEL-2 = conditions: SK-MEL-2, Melanoma, cited from earlier work
SK-MEL-28 = conditions: SK-MEL-28, Melanoma, cited from earlier work
OVCAR-8 = conditions: OVCAR-8, Ovarian, cited from earlier work
SK-OV-3 = conditions: SK-OV-3, Ovarian, cited from earlier work
HCT-15 = conditions: HCT-15, Colon, cited from earlier work
UO-31 = conditions: UO-31, Renal; cited from earlier work
HCC-2998 = conditions: HCC-2998, Colon, cited from earlier work
OVCAR-5 = conditions: OVCAR-5, Ovarian; cited from earlier work

CC1=C(CO)C2=C(C)C3(CC3)[C@@](C)(O)C(=O)C2=C1 [Irofulven, 6-hydroxymethylacylfulvene]
GI50 (HOP-92): 316 nM
TGI (HOP-92): 6.31E−07
log(GI50) (HOP-92): −6.5
log(LC50) (HOP-92): −4.6
log(TGI) (HOP-92): −6.2
CC50 (HOP-92; read-out: LC50): 25100 nM
GI50 (NCI-H322M; Non-Small Cell Lung): 251 nM
TGI (NCI-H322M; Non-Small Cell Lung): 6.31E−07
log(GI50) (NCI-H322M; Non-Small Cell Lung): −6.6
log(LC50) (NCI-H322M; Non-Small Cell Lung): −4.9
log(TGI) (NCI-H322M; Non-Small Cell Lung): −6.2
CC50 (NCI-H322M; read-out: LC50, Non-Small Cell Lung): 12600 nM
GI50 (MDA-MB 231/ATCC; Breast): 316 nM
TGI (MDA-MB 231/ATCC; Breast): 1.26E−06
log(GI50) (MDA-MB 231/ATCC; Breast): −6.5
log(LC50) (MDA-MB 231/ATCC; Breast): −4.1
log(TGI) (MDA-MB 231/ATCC; Breast): −5.9
CC50 (MDA-MB 231/ATCC; read-out: LC50, Breast): 79400 nM
GI50 (SNB-75): 200 nM
TGI (SNB-75): 5.01E−07
log(GI50) (SNB-75): −6.7
log(LC50) (SNB-75): −5.7
log(TGI) (SNB-75): −6.3
CC50 (SNB-75; read-out: LC50): 2000 nM
GI50 (SF-268): 251 nM
TGI (SF-268): 2.51E−06
log(GI50) (SF-268): −6.6
log(TGI) (SF-268): −5.6
CC50 (SF-268; read-out: LC50): ≥ 100000 nM
GI50 (OVCAR-3): 251 nM
TGI (OVCAR-3): 6.31E−07
log(GI50) (OVCAR-3): −6.6
log(TGI) (OVCAR-3): −6.2
CC50 (OVCAR-3; read-out: LC50): ≥ 100000 nM
GI50 (SK-MEL-5): 158 nM
TGI (SK-MEL-5): 3.98E−07
log(GI50) (SK-MEL-5): −6.8
log(LC50) (SK-MEL-5): −6
log(TGI) (SK-MEL-5): −6.4
CC50 (SK-MEL-5; read-out: LC50): 1000 nM
GI50 (NCI-H226): 200 nM
TGI (NCI-H226): 5.01E−07
log(GI50) (NCI-H226): −6.7
log(LC50) (NCI-H226): −5.2
log(TGI) (NCI-H226): −6.3
CC50 (NCI-H226; read-out: LC50): 6310 nM
GI50 (786-0): 200 nM
TGI (786-0): 5.01E−07
log(GI50) (786-0): −6.7
log(LC50) (786-0): −5.7
log(TGI) (786-0): −6.3
CC50 (786-0; read-out: LC50): 2000 nM
GI50 (HT29): 251 nM
TGI (HT29): 1.26E−06
log(GI50) (HT29): −6.6
log(TGI) (HT29): −5.9
CC50 (HT29; read-out: LC50): ≥ 100000 nM
GI50 (K-562): 3160 nM
TGI (K-562): 1.00E−04
log(GI50) (K-562): −5.5
log(TGI) (K-562): −4
CC50 (K-562; read-out: LC50): ≥ 100000 nM
GI50 (HOP-62): 158 nM
TGI (HOP-62): 3.98E−07
log(GI50) (HOP-62): −6.8
log(LC50) (HOP-62): −5.9
log(TGI) (HOP-62): −6.4
CC50 (HOP-62; read-out: LC50): 1260 nM
GI50 (HS 578T; Breast): 316 nM
TGI (HS 578T; Breast): 1.58E−06
log(GI50) (HS 578T; Breast): −6.5
log(LC50) (HS 578T; Breast): −4.7
log(TGI) (HS 578T; Breast): −5.8
CC50 (HS 578T; read-out: LC50, Breast): 20000 nM
GI50 (SK-MEL-2): 200 nM
TGI (SK-MEL-2): 3.98E−07
log(GI50) (SK-MEL-2): −6.7
log(LC50) (SK-MEL-2): −6.2
log(TGI) (SK-MEL-2): −6.4
CC50 (SK-MEL-2; read-out: LC50): 631 nM
GI50 (SK-MEL-28): 631 nM
TGI (SK-MEL-28): 1.58E−06
log(GI50) (SK-MEL-28): −6.2
log(LC50) (SK-MEL-28): −4.7
log(TGI) (SK-MEL-28): −5.8
CC50 (SK-MEL-28; read-out: LC50): 20000 nM
GI50 (OVCAR-8): 200 nM
TGI (OVCAR-8): 6.31E−07
log(GI50) (OVCAR-8): −6.7
log(LC50) (OVCAR-8): −5
log(TGI) (OVCAR-8): −6.2
CC50 (OVCAR-8; read-out: LC50): 10000 nM
GI50 (SK-OV-3): 251 nM
TGI (SK-OV-3): 1.00E−06
log(GI50) (SK-OV-3): −6.6
log(LC50) (SK-OV-3): −5
log(TGI) (SK-OV-3): −6
CC50 (SK-OV-3; read-out: LC50): 10000 nM
GI50 (HCT-15): 316 nM
TGI (HCT-15): 5.01E−06
log(GI50) (HCT-15): −6.5
log(TGI) (HCT-15): −5.3
CC50 (HCT-15; read-out: LC50): ≥ 100000 nM
GI50 (UO-31): 200 nM
TGI (UO-31): 5.01E−07
log(GI50) (UO-31): −6.7
log(TGI) (UO-31): −6.3
GI50 (HCC-2998): 158 nM
TGI (HCC-2998): 3.16E−07
log(GI50) (HCC-2998): −6.8
log(LC50) (HCC-2998): −6.2
log(TGI) (HCC-2998): −6.5
CC50 (HCC-2998; read-out: LC50): 631 nM
GI50 (OVCAR-5): 158 nM
TGI (OVCAR-5): 5.01E−07
log(GI50) (OVCAR-5): −6.8
log(LC50) (OVCAR-5): −4.3
log(TGI) (OVCAR-5): −6.3
